This assay has as its system MV-4-11 cells. Nature of the assay: Gene expression microarray analysis (Affymetrix PrimeView) and GSEA. More on the design: RFU PODN (11730768_x_at) / Fold change /veh PODN (11730768_x_at) / RFU LINC00158 (11744669_a_at) / Fold change /veh LINC00158 (11744669_a_at) / RFU DUSP10 (11751237_a_at) / Fold change /veh DUSP10 (11751237_a_at) / RFU ID3 (11757404_x_at) / Fold change /veh ID3 (11757404_x_at) / RFU PLEKHG5 (11737974_s_at) / Fold change /veh PLEKHG5 (11737974_s_at) / RFU LRRC4B (11730491_at) / Fold change /veh LRRC4B (11730491_at) / RFU GIMAP4 (11747438_a_at) / Fold change /veh GIMAP4 (11747438_a_at) / RFU KRT8 (11758183_x_at) / Fold change /veh KRT8 (11758183_x_at) / RFU CNN1 (11734310_a_at) / Fold change /veh CNN1 (11734310_a_at) / RFU VPS37D (11726825_at) / Fold change /veh VPS37D (11726825_at) / RFU C10orf10 (11716522_x_at) / Fold change /veh C10orf10 (11716522_x_at) / RFU KIR2DL2 /// KIR2DL4 /// KIR2DL5A /// KIR2DL5B /// KIR2DS1 /// KIR2DS2 /// KIR2DS3 /// KIR2DS4 /// KIR3DL3 /// KIR3DL3 /// KIR3DS1 (11738374_at) / Fold change /veh KIR2DL2 /// KIR2DL4 /// KIR2DL5A /// KIR2DL5B /// KIR2DS1 /// KIR2DS2 /// KIR2DS3 /// KIR2DS4 /// KIR3DL3 /// KIR3DL3 /// KIR3DS1 (11738374_at) / RFU C1QL1 (11718748_at) / Fold change /veh C1QL1 (11718748_at) / RFU TMPRSS4 (11747572_a_at) / Fold change /veh TMPRSS4 (11747572_a_at) / RFU HAMP (11756126_x_at) / Fold change /veh HAMP (11756126_x_at) / RFU RNFT2 (11725882_a_at) / Fold change /veh RNFT2 (11725882_a_at) / RFU NR4A2 (11747474_a_at) / Fold change /veh NR4A2 (11747474_a_at) / RFU ABCC12 (11746883_a_at) / Fold change /veh ABCC12 (11746883_a_at) / RFU TMEM136 (11760407_x_at) / Fold change /veh TMEM136 (11760407_x_at) / RFU CLDN22 /// WWC2 (11732394_at) / Fold change /veh CLDN22 /// WWC2 (11732394_at) / RFU HLA-DPB1 (11760878_x_at) / Fold change /veh HLA-DPB1 (11760878_x_at) / RFU SPINT1 (11716480_a_at) / Fold change /veh SPINT1 (11716480_a_at) / RFU GAP43 (11754022_s_at) / Fold change /veh GAP43 (11754022_s_at) / RFU A4GNT (11735810_at) / Fold change /veh A4GNT (11735810_at) / RFU PRB3 (11715151_x_at) / Fold change /veh PRB3 (11715151_x_at) / RFU TUBB4B (11761932_at) / Fold change /veh TUBB4B (11761932_at) / RFU CAPN14 (11732068_a_at) / Fold change /veh CAPN14 (11732068_a_at) / RFU TMCC2 (11721928_a_at) / Fold change /veh TMCC2 (11721928_a_at) / RFU IRGQ (11745062_a_at) / Fold change /veh IRGQ (11745062_a_at) / RFU FAM174B (11720279_a_at) / Fold change /veh FAM174B (11720279_a_at) / RFU TMPRSS4 (11748680_a_at) / Fold change /veh TMPRSS4 (11748680_a_at) / RFU FAM212B (11763350_a_at) / Fold change /veh FAM212B (11763350_a_at) / RFU PLEKHG5 (11743358_a_at) / Fold change /veh PLEKHG5 (11743358_a_at) / RFU ZSCAN30 (11745921_a_at) / Fold change /veh ZSCAN30 (11745921_a_at) / RFU CMKLR1 (11741424_a_at) / Fold change /veh CMKLR1 (11741424_a_at) / RFU LOC101060620 /// MAPK8IP1 (11723275_at) / Fold change /veh LOC101060620 /// MAPK8IP1 (11723275_at) / RFU SPTSSB (11747773_x_at) / Fold change /veh SPTSSB (11747773_x_at) / RFU PRSS12 (11739890_at) / Fold change /veh PRSS12 (11739890_at) / RFU BIN1 (11741810_x_at) / Fold change /veh BIN1 (11741810_x_at) / RFU WNT11 (11732464_a_at) / Fold change /veh WNT11 (11732464_a_at) / RFU C10orf10 (11716521_a_at) / Fold change /veh C10orf10 (11716521_a_at) / RFU C5orf56 (11738089_at) / Fold change /veh C5orf56 (11738089_at) / RFU CYB561 (11721691_x_at) / Fold change /veh CYB561 (11721691_x_at) / RFU ANKRD19P (11752326_a_at) / Fold change /veh ANKRD19P (11752326_a_at) / RFU OR2T12 /// OR2T33 /// OR2T8 (11738714_s_at) / Fold change /veh OR2T12 /// OR2T33 /// OR2T8 (11738714_s_at) / RFU VCAN (11748164_a_at) / Fold change /veh VCAN (11748164_a_at) / RFU JSRP1 (11732532_at) / Fold change /veh JSRP1 (11732532_at) / RFU KRTAP10-11 (11738290_x_at) / Fold change /veh KRTAP10-11 (11738290_x_at) / RFU MYO3A (11730013_a_at) / Fold change /veh MYO3A (11730013_a_at) / RFU EBF3 (11725865_a_at) / Fold change /veh EBF3 (11725865_a_at) / RFU CAMK2N1 (11719241_x_at) / Fold change /veh CAMK2N1 (11719241_x_at) / RFU C5orf56 (11738088_a_at) / Fold change /veh C5orf56 (11738088_a_at) / RFU OLFML3 (11715873_a_at) / Fold change /veh OLFML3 (11715873_a_at) / RFU LOC100653217 /// NTM (11731650_a_at) / Fold change /veh LOC100653217 /// NTM (11731650_a_at) / RFU MAPK11 (11762145_a_at) / Fold change /veh MAPK11 (11762145_a_at) / RFU FIZ1 (11724087_x_at) / Fold change /veh FIZ1 (11724087_x_at) / RFU OASL (11726364_x_at) / Fold change /veh OASL (11726364_x_at) / RFU SOX15 (11748057_x_at) / Fold change /veh SOX15 (11748057_x_at) / RFU CD79A (11719716_a_at) / Fold change /veh CD79A (11719716_a_at) / RFU HIST1H1D (11736915_at) / Fold change /veh HIST1H1D (11736915_at) / RFU CASKIN2 (11723855_a_at) / Fold change /veh CASKIN2 (11723855_a_at) / RFU LOC730098 (11760151_x_at) / Fold change /veh LOC730098 (11760151_x_at) / RFU OR4N2 (11742367_at) / Fold change /veh OR4N2 (11742367_at) / RFU PRRT2 (11749266_a_at) / Fold change /veh PRRT2 (11749266_a_at) / RFU SNX32 (11753110_a_at) / Fold change /veh SNX32 (11753110_a_at) / RFU CDHR5 (11726645_a_at) / Fold change /veh CDHR5 (11726645_a_at) / RFU RCAN1 (11760418_a_at) / Fold change /veh RCAN1 (11760418_a_at) / RFU FAM167A (11723789_a_at) / Fold change /veh FAM167A (11723789_a_at) / RFU FAM26E (11764081_at) / Fold change /veh FAM26E (11764081_at) / RFU ISYNA1 (11749810_s_at) / Fold change /veh ISYNA1 (11749810_s_at) / RFU ACY1 (11761880_at) / Fold change /veh ACY1 (11761880_at) / RFU 11764098_at / Fold change /veh 11764098_at / RFU SAMD14 (11745864_x_at) / Fold change /veh SAMD14 (11745864_x_at) / RFU NPB (11741838_a_at) / Fold change /veh NPB (11741838_a_at) / RFU TMPRSS6 (11731388_a_at) / Fold change /veh TMPRSS6 (11731388_a_at) / RFU KRTAP10-2 (11738614_at) / Fold change /veh KRTAP10-2 (11738614_at) / RFU ARHGAP8 /// PRR5-ARHGAP8 (11727945_x_at) / Fold change /veh ARHGAP8 /// PRR5-ARHGAP8 (11727945_x_at) / RFU KRTAP5-7 /// NADSYN1 (11734609_at) / Fold change /veh KRTAP5-7 /// NADSYN1 (11734609_at) / RFU RASL12 (11751679_a_at) / Fold change /veh RASL12 (11751679_a_at) / RFU CDKN2B (11736163_a_at) / Fold change /veh CDKN2B (11736163_a_at) / RFU PRF1 (11729649_at) / Fold change /veh PRF1 (11729649_at) / RFU, ZNF638 /// ZNF638-IT1 / Fold change vs veh, ZNF638 /// ZNF638-IT1 / RFU, PANK3 / Fold change vs veh, PANK3 / RFU, SH3YL1 / Fold change vs veh, SH3YL1 / RFU, ZEB2 / Fold change vs veh, ZEB2 / RFU, NRIP1 / Fold change vs veh, NRIP1 / RFU, PTTG1IP / Fold change vs veh, PTTG1IP / RFU, CAPN2 / Fold change vs veh, CAPN2 / RFU, MED14 / Fold change vs veh, MED14 / RFU, SNORA58 / Fold change vs veh, SNORA58 / RFU, C1orf63 / Fold change vs veh, C1orf63 / RFU, LRRFIP1 / Fold change vs veh, LRRFIP1 / RFU, NDUFAF7 / Fold change vs veh, NDUFAF7 / RFU, SLC12A2 / Fold change vs veh, SLC12A2 / RFU, IBTK / Fold change vs veh, IBTK / RFU, ESF1 / Fold change vs veh, ESF1 / Fold change vs veh, TMEM50B / RFU, TAOK1 / Fold change vs veh, TAOK1 / RFU, ACBD3 / Fold change vs veh, ACBD3 / RFU, TMA16 / Fold change vs veh, TMA16 / RFU, RWDD3 / Fold change vs veh, RWDD3 / RFU, BCAT1 / Fold change vs veh, BCAT1 / RFU, EDEM3 / Fold change vs veh, EDEM3 / RFU, TMEM33 / Fold change vs veh, TMEM33 / RFU, WDR75 / Fold change vs veh, WDR75 / RFU, AHCTF1 / Fold change vs veh, AHCTF1 / RFU, TFRC / Fold change vs veh, TFRC / RFU, ZDHHC17 / Fold change vs veh, ZDHHC17 / RFU, NOM1 / Fold change vs veh, NOM1 / RFU, ARL8B / Fold change vs veh, ARL8B / RFU, ZBTB11 / Fold change vs veh, ZBTB11 / RFU, TAMM41 / Fold change vs veh, TAMM41 / RFU, KIAA1704 /// LOC100996395 / Fold change vs veh, KIAA1704 /// LOC100996395 / RFU, ING1 / Fold change vs veh, ING1 / RFU, TRMT61B / Fold change vs veh, TRMT61B / RFU, FUBP3 / Fold change vs veh, FUBP3 / RFU, TP53 / Fold change vs veh, TP53 / RFU, TNKS2 / Fold change vs veh, TNKS2 / RFU, ZFP14 / Fold change vs veh, ZFP14 / RFU, ACTR2 / Fold change vs veh, ACTR2 / RFU, PPP3R1 / Fold change vs veh, PPP3R1 / RFU, PIK3R1 / Fold change vs veh, PIK3R1 / RFU, HNRNPA1 / Fold change vs veh, HNRNPA1 / RFU, RNF170 / Fold change vs veh, RNF170 / RFU, ZNF28 / Fold change vs veh, ZNF28 / RFU, RNGTT / Fold change vs veh, RNGTT / RFU, OGT / Fold change vs veh, OGT / RFU, BRD1 / Fold change vs veh, BRD1 / RFU, MARS / Fold change vs veh, MARS / RFU, ZNF655 / Fold change vs veh, ZNF655 / RFU, FAHD1 / Fold change vs veh, FAHD1 / RFU, BDP1 / Fold change vs veh, BDP1 / RFU, LRRCC1 / Fold change vs veh, LRRCC1 / RFU, ARID1A / Fold change vs veh, ARID1A / RFU, ZNF146 / Fold change vs veh, ZNF146 / RFU, ZNF330 / Fold change vs veh, ZNF330 / RFU, GPN3 / Fold change vs veh, GPN3 / RFU, C9orf123 / Fold change vs veh, C9orf123 / RFU, N4BP2L2 / Fold change vs veh, N4BP2L2 / RFU, ARFIP1 / Fold change vs veh, ARFIP1 / RFU, FAM179B / Fold change vs veh, FAM179B / RFU, BCL10 / Fold change vs veh, BCL10 / RFU, UHRF1BP1L / Fold change vs veh, UHRF1BP1L / RFU, BET1 / Fold change vs veh, BET1 / RFU, CNOT2 / Fold change vs veh, CNOT2 / RFU, ZNF268 / Fold change vs veh, ZNF268 / Fold change vs veh, ZNF507 / RFU, DGCR2 / Fold change vs veh, DGCR2 / RFU, WDSUB1 / Fold change vs veh, WDSUB1 / Fold change vs veh, HSP90B1 /// MIR3652 / RFU, ADSS / Fold change vs veh, ADSS / RFU, GK / Fold change vs veh, GK / RFU, ZNF148 / Fold change vs veh, ZNF148 / RFU, TAF9 / Fold change vs veh, TAF9 / RFU, SLC1A5 / Fold change vs veh, SLC1A5 / RFU, SLMO2 / Fold change vs veh, SLMO2 / RFU, ABCC4 / Fold change vs veh, ABCC4 / RFU, LOC101060439 /// RAP1B / Fold change vs veh, LOC101060439 /// RAP1B / RFU, RFX7 / Fold change vs veh, RFX7 / RFU, GTPBP10 / Fold change vs veh, GTPBP10 / RFU, CNEP1R1 / Fold change vs veh, CNEP1R1 / RFU, BIVM-ERCC5 /// ERCC5 / Fold change vs veh, BIVM-ERCC5 /// ERCC5 / RFU, ILF3 / Fold change vs veh, ILF3 / RFU 11762660_at / Fold change /veh 11762660_at / RFU VCAN (11757783_s_at) / Fold change /veh VCAN (11757783_s_at) / RFU DDX43 (11728927_at) / Fold change /veh DDX43 (11728927_at) / RFU KRT8 (11758188_x_at) / Fold change /veh KRT8 (11758188_x_at) / RFU NKD1 (11759106_at) / Fold change /veh NKD1 (11759106_at) / RFU SRD5A1 (11742802_a_at) / Fold change /veh SRD5A1 (11742802_a_at) / RFU TPSAB1 /// TPSB2 (11721975_s_at) / Fold change /veh TPSAB1 /// TPSB2 (11721975_s_at) / RFU GSTM3 (11746129_a_at) / Fold change /veh GSTM3 (11746129_a_at) / RFU IL23R (11737362_x_at) / Fold change /veh IL23R (11737362_x_at) / RFU TMEM51 (11727254_a_at) / Fold change /veh TMEM51 (11727254_a_at) / RFU PIWIL2 (11732686_x_at) / Fold change /veh PIWIL2 (11732686_x_at) / RFU ORM1 (11744905_x_at) / Fold change /veh ORM1 (11744905_x_at) / RFU CCDC152 (11743942_at) / Fold change /veh CCDC152 (11743942_at) / RFU ECM1 (11717891_a_at) / Fold change /veh ECM1 (11717891_a_at) / RFU IL23R (11748794_a_at) / Fold change /veh IL23R (11748794_a_at) / RFU TNFAIP8L3 (11732012_x_at) / Fold change /veh TNFAIP8L3 (11732012_x_at) / RFU MBOAT4 (11741988_at) / Fold change /veh MBOAT4 (11741988_at) / RFU 11764193_at / Fold change /veh 11764193_at / RFU TMEM53 (11763286_at) / Fold change /veh TMEM53 (11763286_at) / RFU MAGEB2 (11727129_at) / Fold change /veh MAGEB2 (11727129_at) / RFU TMEM200A (11744735_a_at) / Fold change /veh TMEM200A (11744735_a_at) / RFU CCDC152 (11751479_a_at) / Fold change /veh CCDC152 (11751479_a_at) / RFU FAM211A (11726209_a_at) / Fold change /veh FAM211A (11726209_a_at) / RFU RGS16 (11746705_a_at) / Fold change /veh RGS16 (11746705_a_at) / RFU VCAN (11755009_s_at) / Fold change /veh VCAN (11755009_s_at) / RFU RHOB (11743442_s_at) / Fold change /veh RHOB (11743442_s_at) / RFU RGS16 (11720943_a_at) / Fold change /veh RGS16 (11720943_a_at) / RFU RGS16 (11720944_at) / Fold change /veh RGS16 (11720944_at) / RFU, VPS4B / Fold change vs veh, VPS4B / RFU, CREB1 / Fold change vs veh, CREB1 / RFU, DNAJC13 / Fold change vs veh, DNAJC13 / RFU, GNAQ / Fold change vs veh, GNAQ / RFU, CDK5R1 / Fold change vs veh, CDK5R1 / RFU, ZRANB3 / Fold change vs veh, ZRANB3 / RFU, CUL4A / Fold change vs veh, CUL4A / RFU, CCNY / Fold change vs veh, CCNY / RFU, UFL1 / Fold change vs veh, UFL1 / RFU, COG3 / Fold change vs veh, COG3 / RFU, DIAPH2 / Fold change vs veh, DIAPH2 / RFU, SKA2 / Fold change vs veh, SKA2 / RFU, AFF3 / Fold change vs veh, AFF3 / RFU, LMF1 / Fold change vs veh, LMF1 / RFU, IPO11 / Fold change vs veh, IPO11 / RFU, DFFB / Fold change vs veh, DFFB / RFU, FOXP1 / Fold change vs veh, FOXP1 / RFU, CARD8 / Fold change vs veh, CARD8 / RFU, STRN3 / Fold change vs veh, STRN3 / RFU, ADK / Fold change vs veh, ADK / RFU, RASSF2 / Fold change vs veh, RASSF2 / RFU, WIPF1 / Fold change vs veh, WIPF1 / RFU, LARP1B / Fold change vs veh, LARP1B / RFU, RASA1 / Fold change vs veh, RASA1 / RFU, RB1 / Fold change vs veh, RB1 / RFU, PPFIA1 / Fold change vs veh, PPFIA1 / RFU, MAT2A / Fold change vs veh, MAT2A / RFU, CCT5 / Fold change vs veh, CCT5 / RFU, WDR92 / Fold change vs veh, WDR92 / RFU, CUX1 / Fold change vs veh, CUX1 / RFU, TTC7A / Fold change vs veh, TTC7A / RFU, TMEM135 / Fold change vs veh, TMEM135 / RFU, DEPTOR / Fold change vs veh, DEPTOR / RFU, CPM / Fold change vs veh, CPM / RFU, DNAJB6 / Fold change vs veh, DNAJB6 / RFU, CACNA2D3 / Fold change vs veh, CACNA2D3 / RFU, DTX4 / Fold change vs veh, DTX4 / RFU, TFCP2 / Fold change vs veh, TFCP2 / RFU, GMCL1 /// GMCL1P1 / Fold change vs veh, GMCL1 /// GMCL1P1 / RFU, AEBP2 / Fold change vs veh, AEBP2 / RFU, SNHG1 /// SNORD22 /// SNORD25 /// SNORD26 /// SNORD27 /// SNORD28 /// SNORD29 /// SNORD31 / Fold change vs veh, SNHG1 /// SNORD22 /// SNORD25 /// SNORD26 /// SNORD27 /// SNORD28 /// SNORD29 /// SNORD31 / Fold change (Aza/veh), C12orf56 (ProbeSet 11735607_a_at) / Fold change (ACY-1035/veh), C12orf56 (ProbeSet 11735607_a_at) / Fold change (Aza/veh), FGFR1OP (ProbeSet 11751329_s_at) / Fold change (ACY-1035/veh), FGFR1OP (ProbeSet 11751329_s_at) / Fold change (Aza/veh), VPS36 (ProbeSet 11739960_a_at) / Fold change (ACY-1035/veh), VPS36 (ProbeSet 11739960_a_at) / RFU SYPL1 (11715823_x_at) / Fold change /veh SYPL1 (11715823_x_at) / RFU IGFBP7 (11715501_s_at) / Fold change /veh IGFBP7 (11715501_s_at) / RFU REEP3 (11722064_at) / Fold change /veh REEP3 (11722064_at) / RFU IGLL1 (11728026_x_at) / Fold change /veh IGLL1 (11728026_x_at): dose or concentration left out as unconfirmed. As to conditions: ProbeSet 11762504_a_at; LIST D. The class given is cell-based, human.

Molecules are shown by their SMILES.

Turning to `Nc1ccc(-c2cccs2)cc1NC(=O)c1ccc2c(c1)cc(C1CC1)n2CCN1CCOCC1` [ACY-1035], the “Fold change vs veh, ZRANB3” value was 0.86.

Source of the values: PMC5218480 (PLoS ONE, 2017).
